Measured values: patent US11415493B2, “Detection of cells in a liquid sample” (DELTA INSTRUMENTS B.V., priority 2016, dated 2022)
“Also recorded” adds a separate entry of the source.

How the values were obtained:
E. coli in raw milk = assay: GelGreen raw milk treatment staining protocol, flow cytometry; assay type: cell-based, Escherichia coli; settings: raw milk diluted in Tris-buffered saline pH 8.5, approximately 50 to 60° C.
Protocol: To show how the FL1, FL2 signals look like in un-spiked raw milk, low bacterial count raw milk was analyzed. The locally obtained raw milk (generally from a farm) has a very low bacteria count ranging from 1000 to 50,000 CFU per mL. The staining composition comprising GelGreen™ as the nucleic acid dye was prepared in the same way as in Example 1, except that the protease Savinase® 16L (from Novozymes) was added in an amount of 1.92×10^3 NPU/ml, where NPU is “Novo Protease Unit which is the same as Anson unit (AU). […] The sample with the staining composition was incubated at approximately 50° C. for approximately 4 to 5 min; the sample was again sonicated for approximately 5 seconds and finally the sample was analyzed on the flow cytometer and the fluorescent signals from the bacteria were detected and a count per unit volume was determined.
A small volume of raw milk was processed and analyzed following this GelGreen™ raw milk treatment staining method protocol (FIG. 38). To show the FL1 and FL2 signals for spiked raw milk, a known number of E. coli were placed into a known volume of the same raw milk and kept at 4° C. until treated, stained and analyzed on the flow cytometer. The raw milk with E. coli was processed and analyzed using the same GelGreen™ raw milk treatment staining method protocol. […]

E. coli = assay: Staining E. coli in spiked raw milk and saline at different temperatures, flow cytometry; assay type: cell-based, Escherichia coli; settings: around 60° C. versus lower temperatures (40, 35, 25, 23° C.), 1 minute, pH 10.6
Protocol: Both solutions were spiked with E. coli bacteria by adding 200 μl bacterial culture to 45 ml solution. The staining composition was prepared with the same dilution of GelGreen™ (from Biotium) as described in Example 1, but this time into a Tris-saline solution (200 mM Trizma base, 150 mM NaCl, pH 10.6) further comprising 0.12 AU/ml liquid Alcalase® 2.4 L FG (from Novozymes). Incubations were as described in the previous examples, except that spiked raw milk samples were incubated at 60, 40 and 23° C. and spiked saline samples were incubated at 60, 35 and 25° C. for 1 minute. […] Each panel contains four quarters: Q1, Q2, Q3 and Q4. The counts provided in Q4 represent the number of cells given in each of these four quarters. […] The optimal range as disclosed herein is 40 to 70° C., a further preferred range is 60 to 68° C. and a highly preferred temperature point is 62° C.

bacteria in raw milk [1] = assay: IBC in 24 h old raw bulk milk, staining composition with Savinase, flow cytometer; assay type: cell-based; settings: 68° C., 1 minute
Protocol: To verify this method with Savinase®, locally obtained raw bulk tank milk from a dairy plant was collected. […] An amount of 200 μl bacterial culture is added to a 45 ml volume of 24 h old raw bulk milk and kept at 4° C. until analyzed. The staining composition comprising GelGreenTM as the nucleic acid dye was prepared in the same way as in Example 5, except that the Alcalase® protease was replaced by 0.12 KNPU/ml Savinase® […] protease (from Novozymes). 200 μl of unheated raw milk is diluted with the 1800 μl staining composition and incubated at approximately 68° C. for 1 minute; the sample is sonicated for 5 seconds at 40 kHz in the before and after the incubation step and analyzed on the flow cytometer; the fluorescent signals from the bacteria were detected and a count per unit volume was determined. Traditional plate counts were used to obtain a bacterial reference count. As used herein, the term “traditional plate counts”, refers to Petrifilm Aerobic Count Plates (AOAC Official Method 986.33). The LOG of individual bacterial count (IBC)/ml from 24 h raw milk in the flow cytometer is 5.61, the LOG of CFU/ml petrifilm is 4.83. The LOG of IBC from 24 h raw milk spiked with E. coli LOG in the flow cytometer is 6.48. The LOG of CFU/ml petrifilm is 6.69.

bacteria in raw milk [2] = assay: IBC in raw milk samples at different temperature settings, flow cytometer; assay type: cell-based
Protocol: The nucleic acid dyes, Evagreen®, SYTOX® Green and Propidium iodide where tested against GelGreen™ (the reference method). […] Nucleic acid dyes Evagreen®, SYTOX® Green and propidium iodide were tested using the same staining and incubation conditions as for the reference method only differing in the type of dye comprised in the staining composition. Evagreen® was used at a concentration of 1.25 μM in the staining composition. SYTOX® Green and Propidium iodide were used at a concentration of 5 μM in the staining composition. Three different types of milk were used: Locally obtained raw bulk tank milk from a farm and dairy plant where collected at a local farmer. This milk is referred to as fresh raw milk and is not older than 24 hours. 24 hour and 48 hour old milk were obtained from a dairy plant. […] For this purpose E. coli was grown overnight (approx. 15 h) in TSB at 32° C. The dead bacterial where obtained by heating the grown E. coli at 110° C. for 10 minutes. […] All the milk samples are kept at 4° C. until analyzed. […] Finally, the samples were analyzed on the flow cytometer and the fluorescent signals from the bacteria were detected and a count per unit volume was determined. […]
From example 5 it is already clear that temperatures lower than the optimal settings result in decreased DNA staining and so bacteria counting performance. […] Milk samples were kept at 4° C. until analyzed. […]

SMILES: CN(C)c1ccc2cc3ccc(N(C)C)cc3[n+](CCCCCC(=O)NCCCOCCOCCOCCCNC(=O)CCCCC[n+]3c4cc(N(C)C)ccc4cc4ccc(N(C)C)cc43)c2c1.[I-].[I-] [GelGreen™]
- staining of bacterial cells in raw milk (E. coli in raw milk): clear population of E. coli was identified; also recorded: bacterial cells being stained
- bacterial cells counted (E. coli): more bacterial cells could be counted
- LOG of IBC in the flow cytometer (bacteria in raw milk [1]; 24 h raw milk spiked with E. coli): 6.48
- LOG of individual bacterial count (IBC)/ml in the flow cytometer (bacteria in raw milk [1]; 24 h raw milk): 5.61
- IBC compared to the 68° C. based reference method (bacteria in raw milk [2]; 40° C., fresh spiked milk): way too low
- IBC compared to the 68° C. based reference method (bacteria in raw milk [2]; 90° C., all the samples): slightly higher
